Measurements taken from patent publication US20210198277A1, “AMINE-SUBSTITUTED ARYL OR HETEROARYL COMPOUNDS” (Epizyme, Inc., priority 2016, published 2021).

target: T1, EHMT1 (Homo sapiens, UniProt Q9H9B1); assay: EHMT1 enzyme assay on peptide substrate (EHMT1 PEP); format: biochemical; details: Table VII; read-out: EHMT1 PEP IC50
T1 sequence (Q9H9B1 1-1298): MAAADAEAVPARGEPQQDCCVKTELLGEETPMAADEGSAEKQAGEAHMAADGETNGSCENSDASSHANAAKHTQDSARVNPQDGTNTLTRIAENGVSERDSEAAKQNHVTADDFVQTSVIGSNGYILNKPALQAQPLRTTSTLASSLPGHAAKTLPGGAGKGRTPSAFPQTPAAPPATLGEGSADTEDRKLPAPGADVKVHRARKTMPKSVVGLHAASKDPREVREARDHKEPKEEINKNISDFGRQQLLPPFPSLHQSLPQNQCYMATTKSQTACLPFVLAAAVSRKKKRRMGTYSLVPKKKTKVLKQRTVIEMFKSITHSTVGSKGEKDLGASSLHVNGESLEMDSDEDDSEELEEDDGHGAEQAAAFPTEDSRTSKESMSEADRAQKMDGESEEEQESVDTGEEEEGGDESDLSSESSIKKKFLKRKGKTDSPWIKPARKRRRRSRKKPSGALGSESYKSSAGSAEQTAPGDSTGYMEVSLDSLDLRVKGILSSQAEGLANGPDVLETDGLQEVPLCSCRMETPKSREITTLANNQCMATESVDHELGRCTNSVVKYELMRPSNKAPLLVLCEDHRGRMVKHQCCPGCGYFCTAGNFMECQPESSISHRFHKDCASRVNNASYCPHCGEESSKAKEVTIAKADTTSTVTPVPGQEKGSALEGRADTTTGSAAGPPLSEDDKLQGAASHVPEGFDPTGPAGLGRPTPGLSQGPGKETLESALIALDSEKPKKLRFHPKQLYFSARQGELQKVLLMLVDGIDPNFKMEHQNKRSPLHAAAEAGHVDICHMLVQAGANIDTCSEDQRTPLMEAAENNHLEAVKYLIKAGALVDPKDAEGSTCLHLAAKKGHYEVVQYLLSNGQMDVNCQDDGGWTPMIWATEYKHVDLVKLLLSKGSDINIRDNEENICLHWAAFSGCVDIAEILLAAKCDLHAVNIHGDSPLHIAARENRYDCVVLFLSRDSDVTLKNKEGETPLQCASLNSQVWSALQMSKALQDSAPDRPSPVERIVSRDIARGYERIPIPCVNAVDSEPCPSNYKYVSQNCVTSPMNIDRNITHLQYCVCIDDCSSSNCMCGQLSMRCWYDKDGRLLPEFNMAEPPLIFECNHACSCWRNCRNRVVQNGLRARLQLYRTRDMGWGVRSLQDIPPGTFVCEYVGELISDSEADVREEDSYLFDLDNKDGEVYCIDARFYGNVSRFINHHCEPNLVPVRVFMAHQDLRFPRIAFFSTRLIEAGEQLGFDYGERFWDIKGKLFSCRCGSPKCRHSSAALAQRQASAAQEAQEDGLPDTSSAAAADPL

IC50 [µM] | Compound
< 0.1 | CNc1cc(C)nc(Nc2ccc(OC)c(OC[C@H](O)CN3CCCC3)c2)n1 [Compound 1045]
< 0.1 | CNc1cc(C)nc(Nc2ccc(OC)c(OC[C@H](O)CN(C)C)c2)n1 [Compound 1112]
> 10 | CNc1cc(C)nc(Nc2ccc(C)c(C(=O)NCc3ccon3)c2)n1 [Compound 1114]
0.1 to 1 | CNc1cc(C)nc(Nc2ccc(OC)c(OC[C@@H](O)CN3CCCC3)c2)n1 [Compound 1044]
0.1 to 1 | CNc1cc(C)nc(Nc2ccc(OC)c(CNCCNC3CCC3)c2)n1 [Compound 1109]

same assay, conditions: read-out: EHMT1 PEP (IC50 μM)

Compound | IC50 [µM]
CCc1ccc(Nc2nc(C)cc(NC)n2)cc1OCCCN1CCCC1 [Compound 497] | 0.1 to 1
COc1cnc(Nc2cc(NCC3CCOCC3)cc(C)n2)cc1OCCCN1CCCC1 [Compound 464, N^2-(5-methoxy-4-(3-(pyrrolidin-1-yl)propoxy)pyridin-2-yl)-6-methyl-N^4-((tetrahydro-2H-pyran-4-yl)methyl)pyridine-2,4-diamine] | 0.1 to 1
CNc1cc(C)nc(Nc2cnc(C3CC3)c(OCCCN3CCCC3)c2)n1 [Compound 516] | 1 to 10
CNc1cc(C)nc(Nc2ccc(OC)c([C@H]3C[C@@H]3CN(C)C)c2)n1 [Compound 487] | 0.1 to 1
CNc1cc(C)nc(Nc2ccc(OC)c(OC[C@H]3CCN(C4CC4)C3)c2)n1 (single isomer, unassigned) [Compound 482] | 0.1 to 1
COc1ccc(Nc2nc(C)cc3[nH]ccc23)cc1OCCCN1CCCC1 [Compound 486] | > 10
CCn1nc(Nc2nccc3[nH]ccc23)cc1COCCN1CCCC1 [Compound 471] | 1 to 10
CCc1ncc(Nc2nc(C)cc(NC)n2)cc1OCCCN1CCCC1 [Compound 515] | 1 to 10
CNc1cc(C)nc(Nc2ccc(OC)c(OCC3CCCN(C4CC4)C3)c2)n1 (stereo not drawn) [Compound 517a] | 0.1 to 1
CCCCNc1nccc(NC)n1 [Compound 543, N^2-butyl-N^4-methylpyrimidine-2,4-diamine] | > 10
CNc1ccnc(Nc2ccc(OC)c(OCCOC3CC3)c2)n1 [Compound 453, N^2-(3-(2-cyclopropoxyethoxy)-4-methoxyphenyl)-N^4-methylpyrimidine-2,4-diamine] | > 10
CNc1cc(C2CCOCC2)nc(Nc2ccc(OC)c(OCCCN3CCCC3)c2)n1 [Compound 459, N^2-(4-methoxy-3-(3-(pyrrolidin-1-yl)propoxy)phenyl)-N^4-methyl-6-(tetrahydro-2H-pyran-4-yl)pyrimidine-2,4-diamine] | 1 to 10
CNc1cc(C)nc(Nc2ccc(OC)c(OCCC3CN(C)C3)c2)n1 [Compound 508] | 1 to 10
CNc1cc(C)nc(Nc2ccc(OC)c(OC[C@H]3C[C@@H](N(C)C)C3)c2)n1 [Compound 468] | 0.1 to 1
CNc1cc(C)nc(Nc2cc(Cl)c(OC)c(OCCCN3CCCC3)c2)n1 [Compound 496] | 0.1 to 1
CNc1ccnc(Nc2ccc(OC)c(OCc3nnc(C4CC4)[nH]3)c2)n1 [Compound 478] | > 10

Compound | IC50 [µM]
COc1cc2c(C3CCN(C)CC3)nc(NC3CCCC3)nc2cc1OCCCN1CCCC1 [Compound 529] | < 0.1
CNc1nc(C2CCCC2)c2cc(OC)c(OCCCN3CCCC3)cc2n1 [Compound 518, 4-cyclopentyl-6-methoxy-N-methyl-7-(3-(pyrrolidin-1-yl)propoxy)quinazolin-2-amine] | 1 to 10
CNc1cc(Nc2cc(OC[C@@H]3CCN(C)C3)c(OC)cn2)nc(C)n1 [Compound 473] | 0.1 to 1
CNc1cc(C)nc(Nc2cc(OC[C@@H]3CCN(C)C3)c(OC)cn2)c1 [Compound 475] | < 0.1
CNc1cc(C)nc(Nc2ccc(OC)c(OCCC3CCN(C)C3)c2)n1 (stereo not drawn) [Compound 503] | 1 to 10
CNc1nc(C2CCCCC2)c2cc(OC)c(OCCCN3CCCC3)cc2n1 [Compound 523, 4-cyclohexyl-6-methoxy-N-methyl-7-(3-(pyrrolidin-1-yl)propoxy)quinazolin-2-amine] | 1 to 10
CNc1ccnc(Nc2ccc(OC)c(OC[C@@H]3CN(C)C[C@@H]3C)c2)n1 [Compound 477] | 0.1 to 1
CNc1cc(C)nc(Nc2ccc(OC)c(OCCCN3CC(O)C3)c2)n1 [Compound 465, 1-(3-(2-methoxy-5-((4-methyl-6-(methylamino)pyrimidin-2-yl)amino)phenoxy)propyl)azetidin-3-ol] | < 0.1
CNc1cc(C)nc(Nc2ccc(OC)c(OC3CCN(C4CC4)CC3)c2)n1 [Compound 466, N^2-(3-((1-cyclopropylpiperidin-4-yl)oxy)-4-methoxyphenyl)-N^4,6-dimethylpyrimidine-2,4-diamine] | > 10
CNc1cc(C)nc(Nc2ccc(OC)c(OC[C@@H]3CN(C)C[C@@H]3O)c2)n1 [Compound 492] | < 0.1
CNc1nc(C2CCN(C(C)C)CC2)c2cc(OC)c(OCCCN3CCCC3)cc2n1 [Compound 530] | < 0.1
CNc1cc(C)nc(Nc2ccc(OC)c(OC[C@H]3C[C@H](N(C)C)C3)c2)n1 [Compound 470] | 1 to 10
CNc1nc(C2CCN(CCO)CC2)c2cc(OC)c(OCCCN3CCCC3)cc2n1 [Compound 533] | < 0.1
CNc1nc(C2=CCOCC2)c2cc(OC)c(OCCCN3CCCC3)cc2n1 [Compound 522] | 1 to 10
CNc1cc(C)nc(Nc2ccc(OC)c(OCCCN3CCCC3C)c2)n1 (stereo not drawn) [Compound 504, N^2-(4-methoxy-3-(3-(2-methylpyrrolidin-1-yl)propoxy)phenyl)-N^4,6-dimethylpyrimidine-2,4-diamine] | 0.1 to 1

More lines, now with the values ahead:

IC50 [µM] | Compound
< 0.1 | COc1cc2c(C3CCN(C)CC3)cc(C)nc2cc1OCCCN1CCCC1 [Compound 536]
< 0.1 | CNc1cc(C)nc(Nc2ccc(OC)c(OCCCN3CCC3)c2)n1 [Compound 490]
< 0.1 | CNc1cc(C2CCOCC2)c2cc(OC)c(OCCCN3CCCC3)cc2n1 [Compound 524, 6-methoxy-N-methyl-4-(oxan-4-yl)-7-[3-(pyrrolidin-1-yl)propoxy]quinolin-2-amine]
< 0.1 | CNc1cc(C)nc(Nc2ccc(OC)c(OCC3CCN(CCO)C3)c2)n1 (stereo not drawn) [Compound 461, 2-(3-((2-methoxy-5-((4-methyl-6-(methylamino)pyrimidin-2-yl)amino)phenoxy)methyl)pyrrolidin-1-yl)ethan-1-ol]
< 0.1 | CNc1cc(C)nc(Nc2ccc(OC)c(OC[C@@H]3CN(C)C[C@H]3O)c2)n1 [Compound 491]
< 0.1 | CNc1cc(Nc2cc(OCCCN3CC4CC4C3)c(OC)cn2)nc(C)c1F (stereo not drawn) [Compound 509]
< 0.1 | CNc1cc(C(C)C)nc(Nc2ccc(OC)c(OCCCN3CCCC3)c2)n1 [Compound 483]
< 0.1 | CNc1cc(C)nc(Nc2cnc(OC)c(OCCCN3CC4CC4C3)c2)n1 (stereo not drawn) [Compound 514]
< 0.1 | COc1cnc(Nc2nc(C)cc3[nH]ccc23)cc1OC[C@H]1CCN(C2CC2)C1 [Compound 494a]
< 0.1 | COc1cnc(Nc2nc(C)cc3[nH]ncc23)cc1OCCCN1CCCC1 [Compound 460, N-(5-methoxy-4-(3-(pyrrolidin-1-yl)propoxy)pyridine-2-yl)-6-methyl-1H-pyrazolo[4,3-c]pyridine-4-amine]
< 0.1 | CNc1cc(C)nc(Nc2ccc(OC)c([C@H]3C[C@H]3CN(C)C)c2)n1 [Compound 488]
< 0.1 | CNc1cc(C)nc(Nc2ccc(OC)c(OCCCN3CC4CC4C3)c2)n1 (stereo not drawn) [Compound 506]
< 0.1 | CNc1cc(C)nc(Nc2ccc(OC)c(OC[C@@H]3CCN(C4CC4)C3)c2)n1 (single isomer, unassigned) [Compound 481]
< 0.1 | CNc1cc(C)nc(Nc2ccc(OC)c(OCCCN(C)C3CC3)c2)n1 [Compound 463, N^2-(3-(3-(cyclopropyl(methyl)amino)propoxy)-4-methoxyphenyl)-N^4,6-dimethylpyrimidine-2,4-diamine]
< 0.1 | COc1cnc(Nc2nc(C)cc3[nH]ccc23)cc1OC[C@@H]1CCN(C2CC2)C1 [Compound 495]
< 0.1 | CNc1nc(C2CCN(C)CC2)c2cc(OC)c(OCCCN3CC4CC4C3)cc2n1 (stereo not drawn) [Compound 532]
< 0.1 | CNc1cc(C)nc(Nc2cnc(OC)c(OC[C@@H]3CCN(C4CC4)C3)c2)n1 [Compound 512]
< 0.1 | CNc1cc(C)nc(Nc2ccc(OC)c(OCC3CCN(C4CC4)C3)c2)n1 (stereo not drawn) [Compound 457]
